Experimental data taken from patent publication US8563254B2, “Biomarkers of tumor pharmacodynamic response” (Novartis AG, priority 2009, dated 2013).

How the values were obtained:
GTL-16 cells = experiment: Western blot of nuclear protein fractions, GTL-16; format: cell-based, human; details: GTL-16, 0.3 μM, 16 hr and 24 hr, normalized to total protein
Experimental: Total protein lysates were prepared from the GTL-16 and A375 cells with RIPA lysis buffer (Upstate, Millipore Corporation, Charlottesville, Va., USA). Cells were washed with PBS and 500 ul of ice-cold RIPA buffer, containing protease inhibitor cocktail tablet (Roche Diagnostic GmbH, Mannheim, Germany) and phosphatase inhibitors (Sigma-Aldrich, Inc., St. Louis, Mo., USA), was added to each plate on ice. After 15 min the cells were scrapped from the plate surface and spun at 16000 RPM for 10 min at 4° C. The supernatant was collected and frozen at −80° C. Nuclear protein fractions were prepared by the NE-PER nuclear and cytoplasmic extraction kit (Pierce Biotechnology, Rockford, Ill., USA). Proteins were quantified by bicinchoninic acid assay (Pierce Biotechnology, Rockford, Ill., USA) for Western blotting.
Primary antibodies specific for NFκB p65, cREL, p-ERK1/2, p-c-jun, ERK1 and Jun were purchased from Santa Cruz Biotechnology (Santa Cruz Biotechnology, Inc., Santa Cruz, Calif., USA) with the exception of Hsp70 and TBP (nuclear loading control), which were obtained from StressGen (StressGen, Assay Designs, Inc., Aim Arbor, Mich., USA) and Abcam (Abcam Inc., Cambridge, Mass., USA), respectively. […]

[1] = tested on: GTL-16 tumor-bearing mice; experiment: Hsp70 expression in GTL-16 xenograft tumors (Western blot, IHC); format: in vivo; details: GTL-16 tumors, single 75 mg/kg dose i.v.
Experimental: (§1) The in vivo study was carried out in strict accordance with Swiss law for animal protection and was approved by the Swiss Cantonal Veterinary Office of Basel-Stadt. GTL-16 (4×10^6) and A375 cells (5×10^6) were inoculated subcutaneously in the right flank in 200 μl Hanks' balanced salt solution (HBSS) or PBS, respectively. Invasive procedures were performed under Forene anesthesia. All experiments were performed in female Harlan HsdNpa: Athymic Nude-nu mice (Laboratory Animal Services, Novartis Pharma AG, Basel). The animals were kept under optimized hygienic conditions with 12 hr dark, 12 hr light conditions. The animals were fed food and water ad libitum. A single 75 mg/kg and 50 mg/kg dose of Hsp90 inhibitor, NVP-AUY922 was administered to the GTL-16 and A375 tumor-bearing mice, when tumors had reached a mean volume of 200 mm^3-500 mm^3 in size. Mice in the control group were injected with the vehicle (D5W). Serum was isolated and tumors dissected over the time course 0-168 hr. Tumors were cut in two halves. One half was paraffin embedded and the other snap frozen, and stored at −80° C.
Total protein lysates were prepared from the GTL-16 and A375 cells with RIPA lysis buffer (Upstate, Millipore Corporation, Charlottesville, Va., USA). […] Proteins were quantified by bicinchoninic acid assay (Pierce Biotechnology, Rockford, Ill., USA) for Western blotting. […]

[2] = tested on: GTL-16 tumor-bearing mice; experiment: Serum IL-8 / mouse KC in GTL-16 mouse xenograft model; format: in vivo
Experimental: as §1
Human IL-8 levels in cell culture supernatants treated with NVP-AUY922 were initially assessed as part of a multiplexed bead-based cytokine panel (hu 27-plex panel I, Bio-rad Laboratories, Hercules, Calif., USA) with a BioPlex Suspension Array System (Bio-rad). Human IL-8 and mouse KC levels in serum derived from GTL-16 and A375 tumor-bearing mice treated with NVP-AUY922 were measured by single-plex cytokine bead-based assay (Milliplex, Millipore, Billerica, Mass., USA). The BioPlex system uses a liquid suspension array of beads. The beads align in a single file through a flow cell to the detector, where a red classification laser at a wavelength of 635 nm and a green reporter laser at a wavelength of 532 nm are used to identify each bead's spectral address and associated reporter signal, respectively.

In the case of `CCNC(=O)c1noc(-c2cc(C(C)C)c(O)cc2O)c1-c1ccc(CN2CCOCC2)cc1` [NVP-AUY922, 5-(2,4-Dihydroxy-5-isopropyl-phenyl)-4-(4-morhpolin-4-ylmethyl-phenyl)-isoxazole-3-carboxylic acid ethylamide], the “change in nuclear NFκB p65 levels” value (GTL-16 cells) is reported as −26%, the “decrease in nuclear phospho-c-Jun levels” value (GTL-16 cells) is reported as roughly 83% and the “earliest time post-treatment at which Hsp70 is induced in tumor” value [1] is reported as 6 h. For the same molecule, the “stable Hsp70 induction in tumor up to” value [1] was 48 h, the “murine IL-8 levels, measured indirectly as mu KC” value ([2]; serum) was “unchanged” and the “earliest time of significant decrease in serum IL-8” value ([2]; single 75 mg/kg dose) was 6 h. For the same molecule, the “time by which serum IL-8 recovers to pre-treatment levels” value ([2]; single 75 mg/kg dose) was no more than 72 h and the “maximum decline of serum IL-8 levels” value ([2]; single 75 mg/kg dose, 12 hr post-treatment) was “approximately 70%”.
